Here are results for 16 compounds from patent publication US20250382308A1, “COMPOUNDS ACTIVE TOWARDS BROMODOMAINS” (NUEVOLUTION A/S, priority 2022, published 2025).

The term IC50 denotes the concentration that gives 50% inhibition. In general, Kd refers to the equilibrium constant for the complex coming apart.

The target of test [1] is human recombinant phosphodiesterase (PDE3A) (Homo sapiens (Human), UniProt Q14432). Put plainly: Radiometric PDE3A assay. In kind it is biochemical. The following applies: [3H]-cAMP hydrolysis, 20 minutes at 30° C. On the procedure: Partially purified human recombinant phosphodiesterase (PDE3A) was obtained by cloning cDNA and expressing in S. frugiperda insect cells using a baculovirus expression system. Cells were harvested from culture by centrifuging at 400×g for 5 minutes. Cell pellet was resuspended in 20 ml of RIPA Buffer (150 mM NaCl, 10 mM Tris, 0.1% NP-40, pH8.3), 4 ml/200 ml of culture, plus protease inhibitors (100 μl/10 ml) and incubated on ice for 10-20 minutes then spun at 3500×g for 10 minutes at 4° C. Supernatant was kept and the pellet thrown away. Tritium-labeled cyclic AMP was hydrolysed to 5′-AMP by PDE3A. The 5′-AMP was then further hydrolysed to adenosine by nucleotidase in snake venom. An anion-exchange resin binds all charged nucleotides and leaves [3H]adenosine as the only labeled compound to be counted by liquid scintillation. The radiometric assay method is a modification of the two-step method of Thompson and Appleman [Biochemistry 10; 311-316; 1971], adapted for a 96 well plate format. 50 μl of diluted PDE3A was incubated with 50 μl of [3H]-CAMP (specific activity 25 Ci/mmol) and 11 μl of 50% DMSO (or compound dilution) for 20 minutes at 30° C. The enzyme was diluted in 20 mM Tris HCl pH7.4 (×2.2 final concentration) and [3H]-cAMP were diluted in 10 mM MgCl2, 40 mM Tris HCl pH 7.4 (×2.2 final concentration). Reactions were carried out in Greiner 96 deep well 1 ml master-block. The plates were centrifuged for 9 seconds before the 20 minutes incubation. The reaction was terminated by denaturing the PDE enzyme (at 70° C. for 2 minutes, plates were left to cool on ice for 10 minutes) after which 25 μl snake venom nucleotidase (225 ug/ml final concentration) was added and incubated for 10 minutes (at 30° C.), plates were centrifuged for 9 seconds before incubation. After incubation 200 μl Dowex resin (1×8, 200-400 mesh) was added and the plate was shaken for 20 minutes then centrifuged for 3 minutes at 1000×g. 50 μl of supernatant was removed and added to 200 μl of MicroScint-20 in white plates (Greiner 96-well Optiplate) and shaken for 30 minutes before reading on Perkin Elmer TopCount Scintillation Counter. GraphPad Prism™ was used to calculate the IC50 values using a sigmoidal dose response (variable slope). The analysis measures 4 parameters including the best fit values for the bottom and top fit of the curve, the hill slope value and the IC50 value.
Chain of human recombinant phosphodiesterase (PDE3A) (Q14432 whole entry): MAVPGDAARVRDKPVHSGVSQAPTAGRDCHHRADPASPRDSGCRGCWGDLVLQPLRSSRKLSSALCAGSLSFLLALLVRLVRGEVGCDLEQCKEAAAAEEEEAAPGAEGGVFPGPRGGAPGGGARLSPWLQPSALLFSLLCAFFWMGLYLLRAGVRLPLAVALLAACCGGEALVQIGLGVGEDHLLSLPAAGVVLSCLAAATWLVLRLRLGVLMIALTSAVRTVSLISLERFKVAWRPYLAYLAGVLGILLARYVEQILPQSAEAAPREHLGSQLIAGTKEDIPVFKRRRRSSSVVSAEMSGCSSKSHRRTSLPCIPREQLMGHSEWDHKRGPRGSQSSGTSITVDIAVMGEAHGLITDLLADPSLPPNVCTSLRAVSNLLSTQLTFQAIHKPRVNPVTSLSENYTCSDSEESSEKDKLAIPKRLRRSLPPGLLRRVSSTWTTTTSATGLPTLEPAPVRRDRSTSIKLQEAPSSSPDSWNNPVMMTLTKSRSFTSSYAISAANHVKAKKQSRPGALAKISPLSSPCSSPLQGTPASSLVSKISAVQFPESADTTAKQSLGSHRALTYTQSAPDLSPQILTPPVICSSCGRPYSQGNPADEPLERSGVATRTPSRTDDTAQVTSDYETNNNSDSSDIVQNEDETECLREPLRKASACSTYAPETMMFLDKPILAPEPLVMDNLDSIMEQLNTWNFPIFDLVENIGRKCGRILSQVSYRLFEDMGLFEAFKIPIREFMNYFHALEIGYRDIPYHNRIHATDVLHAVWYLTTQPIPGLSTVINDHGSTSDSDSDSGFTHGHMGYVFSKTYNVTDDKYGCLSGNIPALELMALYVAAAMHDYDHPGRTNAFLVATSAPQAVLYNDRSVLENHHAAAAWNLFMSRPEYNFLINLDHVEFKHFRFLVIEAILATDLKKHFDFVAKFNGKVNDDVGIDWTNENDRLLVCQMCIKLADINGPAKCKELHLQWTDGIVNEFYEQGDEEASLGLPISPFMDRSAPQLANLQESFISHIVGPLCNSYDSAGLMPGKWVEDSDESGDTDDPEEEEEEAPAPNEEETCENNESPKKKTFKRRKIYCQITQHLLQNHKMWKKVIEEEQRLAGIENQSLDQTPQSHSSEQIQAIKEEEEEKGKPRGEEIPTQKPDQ

The target of test [2] is second bromodomain of BRD4 (Homo sapiens (Human), UniProt O60885). Put plainly: Bromoscan binding assay BRD4 (2). To be noted: geometric mean where multiple measurements have been made. On the procedure: (§1) Compounds were assayed for binding affinity using bromoscan assays and a phosphodiesterase three assay.
(§2) Bromoscan assays were run by DiscoveRx Corporation. The relevant assay names are BRD4 (1) for the first bromodomain of BRD4 and BRD4 (2) for the second bromodomain of BRD4. Further Bromoscan assays covering other bromodomains may be employed to establish the selectivity profile of a compound of interest. To run the Bromoscan assay, a T7 phage strain displaying the relevant bromodomain was grown in parallel in 24-well blocks in an E. coli host derived from the BL21 strain. E. coli were grown to log-phase and infected with T7 phage from a frozen stock (multiplicity of infection=0.4) and incubated with shaking at 32° C. until lysis (90-150 minutes). The lysates were centrifuged (5,000×g) and filtered (0.2 μm) to remove cell debris. […] The liganded beads were blocked with excess biotin and washed with blocking buffer (SeaBlock (Pierce), 1% BSA (bovine serum albumin), 0.05% Tween 20, 1 mM DTT (dithiothreitol)) to remove unbound ligand and to reduce non-specific phage binding. […] Test compounds were prepared as 1000× stocks in 100% DMSO and subsequently diluted 1:10 in monoethylene glycol (MEG) to create stocks at 100× the screening concentration (resulting stock solution is 10% DMSO/90% MEG). The compounds were then diluted directly into the assays such that the final concentration of DMSO and MEG were 0.1% and 0.9%, respectively. All reactions were performed in polystyrene 96-well plates in a final volume of 0.135 ml. […] The bromodomain concentration in the eluates was measured by qPCR (quantitative real-time polymerase chain reaction). Binding constants (Kds) were calculated with a standard dose-response curve using the Hill equation: Response=Blackground+((Signal-Background)/(1+Kd^Hill Slope/Dose^Hill Slope)). The Hill Slope was set to −1. Curves were fitted using a non-linear least square fit with the Levenberg-Marquardt algorithm.

Test [3] deals with first bromodomain of BRD4 (Homo sapiens (Human), UniProt O60885). Put plainly: Bromoscan binding assay BRD4 (1). The following applies: for Kd: Bromoscan, geometric mean where multiple measurements have been made; for Selectivity BRD4(2)/BRD4(1): ratio BRD4(2) Kd / BRD4(1) Kd. On the procedure:
as §1, §2

Turning to `COc1cc(NC(=O)c2cc3c(nc2N2C[C@H](F)[C@@H](F)C2)COC3)cc2c(C)cc(=O)[nH]c12` (racemic) [Example 43, N-(8-methoxy-4-methyl-2-oxo-1H-quinolin-6-yl)-2-[rac-(3S,4S)-3,4-difluoropyrrolidin-1-yl]-5,7-dihydrofuro[3,4-b]pyridine-3-carboxamide], the IC50 in test [1] was more than 10000 nM. In addition, the Kd in test [2] came out at 400 nM; in test [3], 18 nM. Further, the “Selectivity BRD4(2)/BRD4(1)” value in test [3] is on record as 22.

As for `COc1cc(NC(=O)c2cc3c(nc2N2CCOCC2)CNC3)cc2c(C)cc(=O)[nH]c12` [Example 1, N-(8-methoxy-4-methyl-2-oxo-1H-quinolin-6-yl)-2-morpholino-6,7-dihydro-5H-pyrrolo[3,4-b]pyridine-3-carboxamide], the IC50 in test [1] is more than 10000 nM. For the same compound, binding in test [2] was put at a Kd of 600 nM. For the same compound, in test [3], the affinity, expressed as Kd, was 8 nM and the “Selectivity BRD4(2)/BRD4(1)” value worked out at 75.

For `COc1cc(NC(=O)c2cc3c(nc2C2=CCOCC2)COC3)cc2c(C)cc(=O)[nH]c12` [Example 2, 2-(3,6-dihydro-2H-pyran-4-yl)-N-(8-methoxy-4-methyl-2-oxo-1H-quinolin-6-yl)-5,7-dihydrofuro[3,4-b]pyridine-3-carboxamide], the IC50 in test [1] was more than 10000 nM. The compound also displayed a dissociation constant (Kd) in test [2] of 2600 nM. Also, in test [3], binding was characterised by a dissociation constant (Kd) of 64 nM and the “Selectivity BRD4(2)/BRD4(1)” value worked out at 41.

`COc1cc(NC(=O)c2cc3c(nc2N(C)C)COC3)cc2c(C)cc(=O)[nH]c12` [Example 6, 2-(dimethylamino)-N-(8-methoxy-4-methyl-2-oxo-1H-quinolin-6-yl)-5,7-dihydrofuro[3,4-b]pyridine-3-carboxamide]: in test [1], the half-maximal inhibitory concentration (IC50) is more than 10000 nM. This compound registered a Kd in test [2] of 1300 nM. Moreover, in test [3], the affinity, expressed as Kd, was 120 nM and the “Selectivity BRD4(2)/BRD4(1)” value was found to be 11.

As for `Cc1cc(=O)[nH]c2c(C)cc(NC(=O)c3cc4c(nc3N3CCOCC3)COC4)cc12` [Example 7, N-(4,8-dimethyl-2-oxo-1H-quinolin-6-yl)-2-morpholino-5,7-dihydrofuro[3,4-b]pyridine-3-carboxamide], in test [1], the IC50 was more than 10000 nM. Also, in test [2], the Kd was determined as 7100 nM. For the same compound, in test [3], binding was characterised by a dissociation constant (Kd) of 40 nM and the “Selectivity BRD4(2)/BRD4(1)” value was found to be 178.

On to `Cc1cc2[nH]c(=O)cc(C)c2cc1NC(=O)c1cc2c(nc1N1CCOCC1)COC2` [Example 11, N-(4,7-dimethyl-2-oxo-1H-quinolin-6-yl)-2-morpholino-5,7-dihydrofuro[3,4-b]pyridine-3-carboxamide], for which the IC50 in test [1] came out at 7000 nM. For the same compound, the Kd in test [2] was more than 10000 nM. Besides, in test [3], the Kd came to 90 nM and the “Selectivity BRD4(2)/BRD4(1)” value is reported as more than 111.

Take `CCOc1cc(NC(=O)c2cc3c(nc2N2CCOCC2)COC3)cc2c(C)cc(=O)[nH]c12` [Example 12, N-(8-ethoxy-4-methyl-2-oxo-1H-quinolin-6-yl)-2-morpholino-5,7-dihydrofuro[3,4-b]pyridine-3-carboxamide]: the IC50 in test [1] was more than 10000 nM. For the same compound, the values for the Kd in test [2] and in test [3] were 8100 nM and 87 nM, respectively. The “Selectivity BRD4(2)/BRD4(1)” value in test [3] was 93.

In the case of `Cc1c(NC(=O)c2cc3c(nc2N2CCOCC2)COC3)cc2c(C)cc(=O)[nH]c2c1C` [Example 13, 2-morpholino-N-(4,7,8-trimethyl-2-oxo-1H-quinolin-6-yl)-5,7-dihydrofuro[3,4-b]pyridine-3-carboxamide], the 50% inhibitory concentration (IC50) in test [1] was more than 10000 nM. The compound also had a Kd in test [2] of more than 10000 nM. Further, in test [3], binding was put at a Kd of 280 nM and the “Selectivity BRD4(2)/BRD4(1)” value is more than 35.

For `COc1cc(NC(=O)c2cc3c(nc2N2CCOCC2)COC3)cc2c(C)cc(=O)[nH]c12` [Example 15, N-(8-methoxy-4-methyl-2-oxo-1H-quinolin-6-yl)-2-morpholino-5,7-dihydrofuro[3,4-b]pyridine-3-carboxamide], the IC50 in test [1] was more than 10000 nM. In addition, the affinity in test [2], expressed as Kd, was 2200 nM. In test [3], the Kd came to 14 nM and the “Selectivity BRD4(2)/BRD4(1)” value was 157.

As for `COc1cc(NC(=O)c2cc3c(nc2N2C4CCC2COC4)COC3)cc2c(C)cc(=O)[nH]c12` [Example 17, N-(8-methoxy-4-methyl-2-oxo-1H-quinolin-6-yl)-2-(3-oxa-8-azabicyclo[3.2.1]octan-8-yl)-5,7-dihydrofuro[3,4-b]pyridine-3-carboxamide], the IC50 in test [1] was more than 10000 nM. Moreover, the figures for the Kd in test [2] and in test [3] were 1100 nM and 25 nM, respectively. Besides, the “Selectivity BRD4(2)/BRD4(1)” value in test [3] is 44.

With `COc1cc(NC(=O)c2cc3c(nc2N2C[C@H]4C[C@@H]2CO4)COC3)cc2c(C)cc(=O)[nH]c12` [Example 24, N-(8-methoxy-4-methyl-2-oxo-1H-quinolin-6-yl)-2-[(1R,4R)-2-oxa-5-azabicyclo[2.2.1]heptan-5-yl]-5,7-dihydrofuro[3,4-b]pyridine-3-carboxamide], in test [1], the 50% inhibitory concentration (IC50) was more than 10000 nM.

For `COc1cc(NC(=O)c2cc3c(nc2N(C)CC2CC2)COC3)cc2c(C)cc(=O)[nH]c12` [Example 26, 2-[cyclopropylmethyl(methyl)amino]-N-(8-methoxy-4-methyl-2-oxo-1H-quinolin-6-yl)-5,7-dihydrofuro[3,4-b]pyridine-3-carboxamide], the half-maximal inhibitory concentration (IC50) in test [1] was more than 10000 nM. In test [2], the Kd stood at 3100 nM. For the same compound, in test [3], binding was characterised by a dissociation constant (Kd) of 51 nM and the “Selectivity BRD4(2)/BRD4(1)” value is listed as 61.

As for `COc1cc(NC(=O)c2cc3c(nc2N2CCOCC2)CCC3)cc2c(C)cc(=O)[nH]c12` [Example 29, N-(8-methoxy-4-methyl-2-oxo-1H-quinolin-6-yl)-2-morpholino-6,7-dihydro-5H-cyclopenta[b]pyridine-3-carboxamide], the concentration for half-maximal inhibition (IC50) in test [1] is more than 10000 nM. The affinity in test [2], expressed as Kd, was 1900 nM. Also, in test [3], binding was characterised by a dissociation constant (Kd) of 18 nM and the “Selectivity BRD4(2)/BRD4(1)” value amounted to 106.

In turn, `COc1cc(NC(=O)c2cc3c(nc2N2CCOCC2)CN(C(C)C)C3)cc2c(C)cc(=O)[nH]c12` [Example 35, 6-isopropyl-N-(8-methoxy-4-methyl-2-oxo-1H-quinolin-6-yl)-2-morpholino-5,7-dihydropyrrolo[3,4-b]pyridine-3-carboxamide] had a Kd in test [2] of 600 nM. Further, in test [3], the Kd turned out to be 20 nM and the “Selectivity BRD4(2)/BRD4(1)” value is listed as 30.

Consider `COc1cc(NC(=O)c2cc3c(nc2N2CC[C@@H](F)C2)COC3)cc2c(C)cc(=O)[nH]c12` [Example 40, 2-[(3R)-3-fluoropyrrolidin-1-yl]-N-(8-methoxy-4-methyl-2-oxo-1H-quinolin-6-yl)-5,7-dihydrofuro[3,4-b]pyridine-3-carboxamide], for which the Kd is 150 nM in test [2] and 11 nM in test [3]. In addition, the “Selectivity BRD4(2)/BRD4(1)” value in test [3] turned out to be 14.

On to `COc1cc(NC(=O)c2cc3c(nc2N2C[C@@H](F)[C@@H](F)C2)COC3)cc2c(C)cc(=O)[nH]c12` [Example 42, N-(8-methoxy-4-methyl-2-oxo-1H-quinolin-6-yl)-2-[rac-(3R,4S)-3,4-difluoropyrrolidin-1-yl]-5,7-dihydrofuro[3,4-b]pyridine-3-carboxamide], for which the Kd in test [2] came out at 400 nM; in test [3], 26 nM. The “Selectivity BRD4(2)/BRD4(1)” value in test [3] is on record as 16.
